# Measured values: patent US11046699B2, “Pyrazolo-pyrimidin-amino-cycloalkyl compounds and their therapeutic uses” (RAPT THERAPEUTICS, INC., priority 2018, dated 2021)
# Counter-ions that a name gives are not always drawn.
# Biological target: GCN2 (Homo sapiens, UniProt Q9P2K8)
# Assay: GCN2 enzymatic endpoint assay: phosphorylation of GFP-eIF2α measured by TR-FRET (Lanthascreen)
# Assay type: biochemical
# Settings: GCN2 biochemical IC50; 4 nM GCN2, 2 μM ATP, 80 nM GFP-eIF2α, 90 min RT; read-out: GCN2 activity
# Procedure, shortened: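 Reaction started with 2 μM ATP and 80 nM GFP-labelled eIF2α substrate at room temperature, stopped with EDTA after 90 minutes. Phospho-eIF2α detected by terbium-labelled antibody TR-FRET; activity taken as 520 nm (fluorescein) to 495 nm (terbium) emission ratio.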
# Sequence of GCN2 (Q9P2K8 whole entry): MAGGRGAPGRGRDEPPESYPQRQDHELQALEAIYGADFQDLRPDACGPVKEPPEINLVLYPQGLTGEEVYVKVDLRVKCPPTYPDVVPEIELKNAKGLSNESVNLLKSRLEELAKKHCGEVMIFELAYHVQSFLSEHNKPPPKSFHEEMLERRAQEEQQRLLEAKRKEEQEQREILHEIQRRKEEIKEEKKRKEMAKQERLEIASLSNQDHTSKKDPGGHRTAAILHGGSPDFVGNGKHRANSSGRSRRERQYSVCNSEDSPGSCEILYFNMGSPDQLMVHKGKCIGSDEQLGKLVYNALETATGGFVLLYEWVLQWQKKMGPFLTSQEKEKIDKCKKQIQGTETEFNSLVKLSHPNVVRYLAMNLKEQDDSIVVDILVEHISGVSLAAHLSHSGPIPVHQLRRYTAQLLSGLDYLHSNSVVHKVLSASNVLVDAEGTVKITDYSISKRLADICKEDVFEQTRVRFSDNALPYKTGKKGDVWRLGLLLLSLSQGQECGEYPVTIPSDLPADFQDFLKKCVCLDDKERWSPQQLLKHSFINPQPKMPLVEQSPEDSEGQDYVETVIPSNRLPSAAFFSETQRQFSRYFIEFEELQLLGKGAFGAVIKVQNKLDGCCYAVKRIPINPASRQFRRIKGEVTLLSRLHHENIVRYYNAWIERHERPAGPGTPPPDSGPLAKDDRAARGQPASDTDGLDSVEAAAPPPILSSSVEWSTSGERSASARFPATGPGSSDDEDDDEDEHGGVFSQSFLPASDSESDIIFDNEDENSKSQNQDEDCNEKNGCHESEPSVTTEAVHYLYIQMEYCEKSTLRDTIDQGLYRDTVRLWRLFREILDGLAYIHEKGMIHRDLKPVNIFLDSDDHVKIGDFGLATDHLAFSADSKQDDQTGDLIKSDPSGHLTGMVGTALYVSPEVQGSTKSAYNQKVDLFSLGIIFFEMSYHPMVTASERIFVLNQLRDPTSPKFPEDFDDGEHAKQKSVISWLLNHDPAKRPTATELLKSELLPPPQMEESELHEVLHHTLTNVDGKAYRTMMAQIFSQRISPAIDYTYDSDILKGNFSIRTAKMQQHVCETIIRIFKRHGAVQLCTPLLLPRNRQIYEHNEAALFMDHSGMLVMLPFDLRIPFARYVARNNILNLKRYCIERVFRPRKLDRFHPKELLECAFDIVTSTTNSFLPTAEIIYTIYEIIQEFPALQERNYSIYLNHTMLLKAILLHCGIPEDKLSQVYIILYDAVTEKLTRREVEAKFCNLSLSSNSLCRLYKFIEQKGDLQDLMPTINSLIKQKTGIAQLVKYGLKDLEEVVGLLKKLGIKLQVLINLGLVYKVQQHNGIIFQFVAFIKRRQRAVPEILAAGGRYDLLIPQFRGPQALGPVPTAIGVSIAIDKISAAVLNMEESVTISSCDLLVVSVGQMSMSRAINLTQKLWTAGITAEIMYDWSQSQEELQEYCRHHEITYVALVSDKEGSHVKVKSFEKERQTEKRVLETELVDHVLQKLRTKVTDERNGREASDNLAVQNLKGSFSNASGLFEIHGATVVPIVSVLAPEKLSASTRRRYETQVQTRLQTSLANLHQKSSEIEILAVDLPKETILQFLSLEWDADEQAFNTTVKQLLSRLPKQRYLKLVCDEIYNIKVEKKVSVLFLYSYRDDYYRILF
row,IC50,Compound
1,25 to 200 nM,"CNC(=O)[C@]1(C)CC[C@@H](Nc2ncc3c(Br)nn(-c4ccc5ncc(C(C)(C)O)cc5c4)c3n2)C1 [Example 21, (1R,3R)-3-((3-bromo-1-(3-(2-hydroxypropan-2-yl)quinolin-6-yl)-1H-pyrazolo[3,4-d]pyrimidin-6-yl)amino)-N,1-dimethylcyclopentane-1-carboxamide]"
2,< 25 nM,"CNC(=O)[C@]1(C)CC[C@@H](Nc2ncc3c(Br)nn(-c4cc(CCO)c5ncccc5c4)c3n2)C1 [Example 29, (1R,3R)-3-((3-bromo-1-(8-(2-hydroxyethyl)quinolin-6-yl)-1H-pyrazolo[3,4-d]pyrimidin-6-yl)amino)-N,1-dimethylcyclopentane-1-carboxamide hydrochloride]"
3,< 25 nM,"CN(C)C(=O)[C@]1(C)CC[C@@H](Nc2ncc3c(Br)nn(-c4cc(CCN)c5ncccc5c4)c3n2)C1 [Example 30, (1R,3R)-3-((1-(8-(2-aminoethyl)quinolin-6-yl)-3-bromo-1H-pyrazolo[3,4-d]pyrimidin-6-yl)amino)-N,N,1-trimethylcyclopentane-1-carboxamide; 2,2,2-trifluoroacetic acid]"
4,< 25 nM,"CNC(=O)[C@]1(C)CC[C@@H](Nc2ncc3c(I)nn(-c4cc(F)c5ncccc5c4)c3n2)C1 [Example 31, (1R,3R)-3-((1-(8-fluoroquinolin-6-yl)-3-iodo-1H-pyrazolo[3,4-d]pyrimidin-6-yl)amino)-N,1-dimethylcyclopentane-1-carboxamide; 2,2,2-trifluoroacetic acid]"
5,< 25 nM,"CNC(=O)[C@]1(C)CC[C@@H](Nc2ncc3c(Br)nn(-c4cc(CCN)c5ncccc5c4)c3n2)C1 [Example 32, (1R,3R)-3-((1-(8-(2-aminoethyl)quinolin-6-yl)-3-bromo-1H-pyrazolo[3,4-d]pyrimidin-6-yl)amino)-N,1-dimethylcyclopentane-1-carboxamide; 2,2,2-trifluoroacetic acid]"
6,< 25 nM,"CNC(=O)[C@]1(C)CC[C@@H](Nc2ncc3c(Br)nn(-c4cc(CNS(C)(=O)=O)c5ncccc5c4)c3n2)C1 [Example 33, (1R,3R)-3-((3-bromo-1-(8-(methylsulfonamidomethyl)quinolin-6-yl)-1H-pyrazolo[3,4-d]pyrimidin-6-yl)amino)-N,1-dimethylcyclopentane-1-carboxamide; 2,2,2-trifluoroacetic acid]"
7,< 25 nM,"CNC(=O)[C@]1(C)CC[C@@H](Nc2ncc3c(Br)nn(-c4cc([C@@H](C)N)c5nccnc5c4)c3n2)C1 [Example 34, (1R,3R)-3-((1-(8-((R)-1-aminoethyl)quinoxalin-6-yl)-3-bromo-1H-pyrazolo[3,4-d]pyrimidin-6-yl)amino)-N,1-dimethylcyclopentane-1-carboxamide; 2,2,2-trifluoroacetic acid]"
8,< 25 nM,"CNC(=O)[C@]1(C)CC[C@@H](Nc2ncc3c(Br)nn(-c4ccc(-c5nnc(C)o5)c(C#N)c4)c3n2)C1 [Example 35, (1R,3R)-3-((3-bromo-1-(3-cyano-4-(5-methyl-1,3,4-oxadiazol-2-yl)phenyl)-1H-pyrazolo[3,4-d]pyrimidin-6-yl)amino)-N,1-dimethylcyclopentane-1-carboxamide; 2,2,2-trifluoroacetic acid]"
9,< 25 nM,"CNC(=O)[C@]1(C)CC[C@@H](Nc2ncc3c(Br)nn(-c4cc(C#N)cc(OCC5(F)CNC5)c4)c3n2)C1 [Example 36, (1R,3R)-3-((3-bromo-1-(3-cyano-5-((3-fluoroazetidin-3-yl)methoxy)phenyl)-1H-pyrazolo[3,4-d]pyrimidin-6-yl)amino)-N,1-dimethylcyclopentane-1-carboxamide; 2,2,2-trifluoroacetic acid]"
10,< 25 nM,"CNC(=O)[C@]1(C(C)C)CC[C@@H](Nc2ncc3c(Br)nn(-c4cc(F)c5ncccc5c4)c3n2)C1 [Example 37, (1R,3R)-3-((3-bromo-1-(8-fluoroquinolin-6-yl)-1H-pyrazolo[3,4-d]pyrimidin-6-yl)amino)-1-isopropyl-N-methylcyclopentane-1-carboxamide hydrochloride]"
11,< 25 nM,"CNC(=O)[C@]1(C)CC[C@@H](Nc2ncc3c(Br)nn(-c4ccc(-c5nnc(C)s5)cc4)c3n2)C1 [Example 38, (1R,3R)-3-((3-bromo-1-(4-(5-methyl-1,3,4-thiadiazol-2-yl)phenyl)-1H-pyrazolo[3,4-d]pyrimidin-6-yl)amino)-N,1-dimethylcyclopentane-1-carboxamide]"

# Continued, compound first:
row,Compound,IC50
1,"COCCNC(=O)[C@@H]1CCC[C@@H](Nc2ncc3c(Br)nn(-c4ccc5ncccc5c4)c3n2)C1 [Example 20, (1R,3R)-3-((3-bromo-1-(quinolin-6-yl)-1H-pyrazolo[3,4-d]pyrimidin-6-yl)amino)-N-(2-methoxyethyl)cyclohexane-1-carboxamide]",500 to 1000 nM
2,"Cc1nnc(-c2ccc(-n3nc(Br)c4cnc(N[C@@H]5CC[C@@H](C(=O)N6CCNC(=O)C6)C5)nc43)cc2)o1 [Example 22, 4-((1R,3R)-3-((3-bromo-1-(4-(5-methyl-1,3,4-oxadiazol-2-yl)phenyl)-1H-pyrazolo[3,4-d]pyrimidin-6-yl)amino)cyclopentane-1-carbonyl)piperazin-2-one]",25 to 200 nM
3,"COCCNC(=O)[C@@H]1CC[C@@H](Nc2ncc3c(Br)nn(-c4ccc(-c5cccnc5)cc4)c3n2)C1 [Example 24, (1R,3R)-3-((3-bromo-1-(4-(pyridin-3-yl)phenyl)-1H-pyrazolo[3,4-d]pyrimidin-6-yl)amino)-N-(2-methoxyethyl)cyclopentane-1-carboxamide]",200 to 500 nM
4,"Brc1nn(-c2ccc3ncccc3c2)c2nc(N[C@@H]3CC[C@@H](c4ncc[nH]4)C3)ncc12 [Example 25, N-((1R,3R)-3-(1H-imidazol-2-yl)cyclopentyl)-3-bromo-1-(quinolin-6-yl)-1H-pyrazolo[3,4-d]pyrimidin-6-amine]",25 to 200 nM
5,"COCCNC(=O)[C@@H]1CC[C@@H](Nc2ncc3c(Br)nn(-c4ccc(-c5ncco5)cc4)c3n2)C1 [Example 26, (1R,3R)-3-((3-bromo-1-(4-(oxazol-2-yl)phenyl)-1H-pyrazolo[3,4-d]pyrimidin-6-yl)amino)-N-(2-methoxyethyl)cyclopentane-1-carboxamide]",25 to 200 nM
6,"CN1CCN(C(=O)[C@@H]2CC[C@@H](Nc3ncc4c(Br)nn(-c5ccc(-c6cccnc6)c(F)c5)c4n3)C2)CC1=O [Example 27, 4-((1R,3R)-3-((3-bromo-1-(3-fluoro-4-(pyridin-3-yl)phenyl)-1H-pyrazolo[3,4-d]pyrimidin-6-yl)amino)cyclopentane-1-carbonyl)-1-methylpiperazin-2-one]",500 to 1000 nM
7,"Cc1nnc(-c2ccc(-n3nc(Br)c4cnc(N[C@@H]5CC[C@](C(=O)N6CCNCC6)(C(C)C)C5)nc43)cc2CCC(N)=O)s1 [Example 28, 3-(5-(3-bromo-6-(((1R,3R)-3-isopropyl-3-(piperazine-1-carbonyl)cyclopentyl)amino)-1H-pyrazolo[3,4-d]pyrimidin-1-yl)-2-(5-methyl-1,3,4-thiadiazol-2-yl)phenyl)propanamide; 2,2,2-trifluoroacetic acid]",< 25 nM
8,"CNC(=O)[C@]1(CC(F)F)CC[C@@H](Nc2ncc3c(Br)nn(-c4ccc(-c5nnc(C)s5)cc4)c3n2)C1 [Example 39, (1R,3R)-3-((3-bromo-1-(4-(5-methyl-1,3,4-thiadiazol-2-yl)phenyl)-1H-pyrazolo[3,4-d]pyrimidin-6-yl)amino)-1-(2,2-difluoroethyl)-N-methylcyclopentane-1-carboxamide; 2,2,2-trifluoroacetic acid]",< 25 nM
